This is an account of results in patent US9744236B2, “Photolabile compounds” (The Trustees of Columbia University in the City of New York, priority 2009, dated 2017).

Data set [1] can be described thus: Cyclic voltammetry, redox potential. The data set is classed as physicochemical. As to conditions: in water, versus Ag/AgCl. The protocol:
(§1) UV-vis spectra in water were obtained with an HP 8453 diode array spectrophotometer. RMN ^1H spectra were obtained using a Bruker 500 MHz equipment. CV measurements were performed with a PAR 273A potentiostat. Irradiation was effected by means of a pulsed Xe lamp, (pulse energy ˜0.5 J), with a low-pass filter at 480 nm. Irradiation using a 473 nm DPSS laser gave similar results.
(§2) (See, e.g., E. S. Dodsworth et al., 1986, Chem. Phys. Lett., 124:152-158). The photoactivity of these compounds has been explained in terms of a reaction pathway that involves the transition between the MLCT state to a lower-energy d-d state, which promotes ligand release. There is a direct correspondence between the energy of the MLCT transition and the quantum yield of the photoreaction. For [Ru(bpy)2(4AP)CH3CN]^2+, the photoreaction yield is about φPR=0.4. Since [Ru(bpy)2(4AP)2]Cl2 presents a red-shifted band, a lower photoreaction yield is expected. An estimate based on early experiments leads to an estimate of φPR≅0.02 at 473 nm.
Its aqueous solutions present a strong metal to ligand charge-transfer band (MLCT band) at 450 nm, characteristic of this family of Ru polypyridines.

The nature of data set [2]: Dark stability and recombination followed by UV-vis spectra. The data set is classed as physicochemical. An excerpt: The photoproducts after exposure to light were Ru(bpy)2(4AP)(H2O) and free 4AP.
(§3) Several ruthenium polypyridyl complexes present this behavior. (D. V. Pinnick et al., 1984, Inorg. Chem., 23:1440-1445).

Data set [3] deals with Retzius (Rz) cells in the ganglion. Kind of data set: Intracellular voltage recording of leech ganglion neuron with light flash uncaging. Conditions: for neuron spiking activity on addition, before light: ˜100 μM in saline, no flash; for neuron spiking activity after light flash: pulsed Xe lamp flash. Here is the method:
Hirudo medicinalis has a central nerve cord with several ganglia, each one containing about 400 neurons arranged in a known pattern. (W.-R. Schlue et al., 1980, J. Exp. Biol., 82:23-34). An entire ganglion was mounted on a dish. The transmembrane potential for a single cell (a neuron) in the ganglion was recorded by inserting inside the neuron a glass micropipet with a micrometer-sized end, filled with saturated aqueous KCl that acts as a luggin bridge for an Ag/AgCl electrode. Another Ag/AgCl electrode was used as a reference. The signal was taken with an AM-System 1600 amplifier, and the entire setup was covered with a Faraday cage. A 12 bit A/D acquisition card was used to digitize the data using an ad-hoc program written in QuickBasic.
Low Ca^2+-high Mg^2+ saline solution (NaCl, 102 mM; KCl, 4 mM; CaCl2: 1 mM; and MgCl2: 10 mM; Tris base, pH 5.4 adjusted to 7.4) was perfused through the dish. […] A pulsed Xe lamp located under the dish was used to irradiate the solution. UV light was removed using a band-pass filter at 500 nm.
After impaling the cell with an electrode, many experiments were performed on the same cell to ensure reproducibility. […] 300 seconds later, at 5500 s, a light flash was directed to the ganglion.

A short description of data set [4]: Photorelease of 4AP from [Ru(bpy)2(4AP)2]Cl2 under visible light (UV-vis, NMR). The class given is physicochemical. The protocol:
as §1, §3
Although at pH 7 the spectrum of the irradiated complex is very similar to that of the original complex, a diminished shoulder at 470 nm becomes evident. To determine the nature of the photoreaction, NMR spectra were taken before and after irradiation with visible light. […] After irradiation, this signal decreased, and two new signals appeared at lower fields: one corresponding to the free ligand (m3), and the other corresponding to the aquo-4AP complex (m2), indicating photorelease of the 4AP. These two latter signals integrated for 0.30 and 0.27 of the initial signal, which corresponds to a photoreaction of 60%.
as §2

Data set [5] in a line: Fluorescence emission quantum yield before and after irradiation. The class given is physicochemical. An excerpt: All reagents were purchased from Sigma-Aldrich and used as received. Ru(bpy)2Cl2 was synthesized according to the literature using water as solvent (Viala, C.; Coudret, C. Inorg. Chim. Acta 2006, 359: 984-989). UV-vis spectra were taken with a HP8453 diode-array spectrometer. NMR spectra were obtained using a 500 MHz Bruker AM-500. Fluorescence emission measurements were made with a PTI Quantamaster spectrofluorometer, corrected for the instruments response function. Rhodamine B was used as fluorescence standard of emission quantum yield (φ=0.31 in aqueous solutions). Quantum yield of the complex was obtained directly from the ratio of the spectral areas, which present the same shape.
FIG. 20 depicts the emission spectra of the complex during irradiation. The maximum and the shape of the initial emission spectrum is the same as that of the free ligand RhodB-MAPN but the emission quantum yield is much lower, around pt=0.04. Quantum yields are easily calculated integrating the spectral areas. After irradiation with a 473 nm laser, RhodB-MAPN is released and the solution increases its fluorescence up to 6 fold, to φt=0.24.

Data set [6] is described as follows: Photouncaging quantum yield. The class given is physicochemical. Here is the method:
The photouncaging quantum yield measurements were performed with a Nd:YAG diode pumped solid state laser doubled to 473 nm with a constant power of 6.3 mW. The light was collimated and sent through an optical path of 1 cm into a fluorescence glass cuvette, with stirring. Total irradiation energy was measured using a Coherent Fieldmaster FM light meter with a visible light photodiode model SR45.
The quantum yield of rhodamine photorelease was calculated after the analysis of fluorescence emission data during photouncaging at 473 nm. A complete spectrum was obtained once per second. Absorption of light by the complex [Ru(bpy)2(RhodB-MAPN)Cl]^+ yields the aquo complex [Ru(bpy)2(H2O)Cl]^+ and free RhodB-MAPN. In each irradiation period the amount of aquo complex and free RhodB-MAPN generated is given by the following: δn=δtIφPU(1−10^−AbsT)AbsR/AbsT where δt is the irradiation period, I the light intensity in moles of photons per second, φPU is the quantum yield of photouncaging, AbsR is the absorbance of the photoactive species [Ru(bpy)2(RhodB-MAPN)Cl]^+ at 473 nm and AbsT is the total absorbance of the irradiated solution. By means of finite element calculation of the former equation a photouncaging quantum yield of φPU=0.12 at 25° C. was calculated. This value is in good agreement with the reported quantum yields for similar complexes. […]

Data set [7] in a line: Photorelease of TzGly from [Ru(bpy)2(TzGly)(py)]Cl2. The class given is physicochemical. As to conditions: 470 nm.
Another data set has as its system E. coli culture. In words: Light-patterned uncaging of MTG in bacterial culture with X-Gal. The class given is cell-based. Conditions: 1 mM complex, 0.02% X-Gal, 20 minutes irradiation, then 37° C. Here is the method: A handheld projector 3M (110 MPro) is used to irradiate for 20 minutes an E. coli culture growing in a piece of 7 cm diameter whatman filter paper soaked in LB medium containing 1 mM [(Ru(bpy)2P(Me)3(MTG)]^+2 and 0.02% X-Gal (FIG. 24A). After image projection, the culture is left at 37° C. for until blue precipitate is noticed (˜40 minutes, FIG. 24B).

Data set [8] can be described thus: Photolysis of [Ru(bpy)2(PMe3)(MTG)]+2, UV-Vis. The data set is classed as physicochemical. The protocol:
A total of 67 mg of [Ru(bpy)2(PMe3)Cl]PF6 were suspended in 4 ml acetone and 2 ml water, and were heated and stirred at 80° C. until dissolution. Evaporated acetone was gradually replaced with water or acetone to keep total volume constant but avoiding precipitation. All the following was performed under dim red light. 100 mg of D(+)methylthiogalactose were added and the mixture was kept at 80° C. for 5 hours: The reaction progress was followed by UV-Vis spectrophotometry until the aquo complex was no longer detectable. The solution was cooled in ice-cold water and saturated [BPh4]^− as sodium salt was added carefully. The pale yellow precipitate was washed six times in ice cold water by resuspending the precipitate and centrifugation. NMR spectra were taken in a 500 MHz Bruker Avance II spectrometer. Photolysis of the NMR sample was performed inside the unopened NMR tube, by means of a custom-built NMR photolysis device based in 10 high current (100 mA) LEDs with emission wavelength centered at 520+/−20 nm.
The complex has a molar absorptivity coefficient of ˜3100 and a maximum absorption wavelength in the visible range at 422 nm. Photolysis quantum yield is 0.3. Successive photolysis products of the same sample are shown in black (FIG. 21).

The test system of another data set is mouse cortical neuron. Kind of data set: Whole-cell patch-clamp of cortical neuron, perfusion. The class given is cell-based. Conditions: 1 μM via perfusion. The source says: FIGS. 13A and 13B: FIG. 13A depicts the structure of TzGly. […] The measurement results were obtained by the whole-cell patch-clamp method, as known and used in the art.

Like-named read-outs stand apart in the source and are kept apart here.

For the compound `Nc1ccncc1.Nc1ccncc1.[Cl-].[Cl-].[Ru+2].c1ccc(-c2ccccn2)nc1.c1ccc(-c2ccccn2)nc1` [[Ru(bpy)2(4AP)2]Cl2], in data set [1], the “redox potential of the couple R^III/R^II” value was determined as 0.76 V. Moreover, the “time without dark decomposition” value in [2] (in the dark) is “more than 20 hours”. Also, the 4AP recombination entry in [2] (irradiated solution, after 7 hours in the dark) was “less than 4%”. In data set [2] (water), the “stability in the dark” value is reported as “stable in the dark”. Also, the “toxicity on the neuron” value in data set [3] (during the experiments) is “Neither toxicity nor a deleterious effect was observed”. Moreover, in [3], the “neuron spiking activity on addition, before light” value was “the activity remained unchanged”. Further, the “neuron spiking activity after light flash” value in data set [3] (˜100 μM) was “sudden activity was recorded and it remained high after 300 s”. Moreover, in [3] (˜100 μM, second light pulse at 6750 s), the “neuron spiking activity after second light pulse” value was “even higher activity”. Moreover, in [4] (after irradiation with visible light), the “extent of photoreaction (NMR signal integration)” value was found to be 60%. In [4] (at 473 nm, estimate based on early experiments), the “photoreaction yield φPR” value is reported as ~0.02.
`CCN(CC)c1ccc2c(-c3ccccc3C(=O)N(C)CCC#N)c3ccc(=[N+](CC)CC)cc-3oc2c1.[Cl][Ru+].c1ccc(-c2ccccn2)nc1.c1ccc(-c2ccccn2)nc1` [[Ru(bpy)2(RhodB-MAPN)Cl]^+]: the increase of fluorescence entry in data set [5] (after blue light (473 nm) irradiation) is “up to 6 fold”. The emission quantum yield is recorded as 0.24 in data set [5] (after irradiation with a 473 nm laser) and ~0.04 in data set [5] (aqueous, before irradiation). In addition, in data set [6] (473 nm, 25° C.), the “photouncaging quantum yield φPU” value was determined as 0.12.
As to `C=CCC#N.[Cl][Ru+].c1ccc(-c2ccccn2)nc1.c1ccc(-c2ccccn2)nc1` [[Ru(bpy)2(VACN)Cl]^+], the “photouncaging quantum yield φPU (VACN release)” value in [6] worked out at 0.21.
`CC#N.Nc1ccncc1.[Ru+2].c1ccc(-c2ccccn2)nc1.c1ccc(-c2ccccn2)nc1` [[Ru(bpy)2(4AP)CH3CN]^2+]: the “photoreaction yield φPR” value in data set [4] is reported as ~0.4.
With [Ru(bpy)2(TzGly)(py)]Cl2, the photorelease on irradiation result in data set [7] is “photoreleased TzGly”.
For the compound `[Cl][Ru][Cl].c1ccc(-c2ccccn2)nc1.c1ccc(-c2ccccn2)nc1.c1ccc(-c2ccccn2)nc1` [Ru(bpy)3Cl2, reference compound], the “neuron spiking activity on addition, before light” value in data set [3] is “without significant changes in activity”. The “neuron spiking activity after light flash” value in data set [3] (˜100 μM) was “after a short time the activity decreased to the basal level”.
For `CP(C)C.CS[C@@H]1O[C@H](CO)[C@H](O)[C@H](O)[C@H]1O.[Ru+2].c1ccc(-c2ccccn2)nc1.c1ccc(-c2ccccn2)nc1` [[Ru(bpy)2(PMe3)(MTG)]^+2], the “time until blue precipitate is noticed” value in the data set on E. coli culture is ~40 min. The compound also had a photolysis quantum yield in data set [8] of 0.3.
Consider `NC(C(=O)O)c1nnn[nH]1` (racemic) [TzGly, (RS)-(tetrazol-5-yl)glycine], for which the effect on neuron entry in the data set on mouse cortical neuron is listed as “spiking”.
